In patent US20080194585A1, “Fungicidal Pyrazine Derivatives” (priority 2005, published 2008):
Marks after values point to notes of the source that are not given here.

What was measured:
[1] = tested on: Puccinia recondita f. sp. tritici; assay: Test K: wheat leaf rust, preventive spray on wheat seedlings
Septoria nodorum = assay: Test H: wheat glum blotch, preventive spray on wheat seedlings
Protocol: (the causal agent of wheat glum blotch) and incubated in a saturated atmosphere at 20° C. for 48 h, and then moved to a growth chamber at 22° C. for 5 days, after which disease ratings were made.

Plasmopara viticola = assay: Test D: grape downy mildew, spray after inoculation of grape seedlings; assay type: in vivo
Text: Upon removal, disease ratings were made. […] A dash (-) indicates no test results.

Botrytis cinerea = assay: Test E: tomato botrytis, preventive spray on tomato seedlings
fusarium graminearium = assay: Test I: wheat head scab, preventive spray on wheat seedlings
Protocol: (the causal agent of wheat head scab) and incubated in a saturated atmosphere at 20° C. for 72 h, and then moved to a growth chamber at 22° C. for 5 days, after which disease ratings were made.

Pythium aphanidermatum = assay: Test A: bluegrass pythium blight, preventive spray on bluegrass seedlings
Phytophthora infestans = assay: whole plant or invertebrate; assay type: in vivo
Septoria tritici = assay: Test J: wheat leaf blotch, preventive spray on wheat seedlings; assay type: in vivo
Text: A dash (-) indicates no test results.

[2] = tested on: Colletotrichum orbiculare; assay: Test B: cucumber Colletotrichum anthracnose, preventive spray on cucumber seedlings
[3] = tested on: Erysiphe graminis f. sp. tritici; assay: Test L: wheat powdery mildew, preventive spray on wheat seedlings
Rhizoctonia oryzae = assay: Test G: turf brown patch, preventive spray on creeping bent grass seedlings
Protocol: (the causal agent of turf brown patch) and incubated in a saturated atmosphere at 27° C. for 24 h, and then moved to a growth chamber at 27° C. for 5 days, after which disease ratings were made.

[4] = 40 ppm (marked *), 100 = 100% disease control, 0 = no control
[5] = 200 ppm, 100 = 100% disease control, 0 = no control

Structure (SMILES)	Test K disease control rating ([1]; 40 ppm (*))	Test H disease control rating (Septoria nodorum; 40 ppm (*))	Test D disease control rating (Plasmopara viticola; 40 ppm (*))	Test E disease control rating (Botrytis cinerea; 40 ppm (*))	Test I disease control rating (fusarium graminearium; 40 ppm (*))	Test A disease control rating (Pythium aphanidermatum; 40 ppm (*))	Test F disease control rating (Phytophthora infestans; 40 ppm (*))	Test J disease control rating (Septoria tritici; 40 ppm (*))	Test B disease control rating ([2]; 40 ppm (*))	Test L disease control rating ([3]; 40 ppm (*))	Test G disease control rating (Rhizoctonia oryzae; 40 ppm (*))	Test K disease control rating [1, 5]	Test H disease control rating (Septoria nodorum; [5])	Test D disease control rating (Plasmopara viticola; [5])	Test E disease control rating (Botrytis cinerea; [5])	Test I disease control rating (fusarium graminearium; [5])	Test A disease control rating (Pythium aphanidermatum; [5])	Test F disease control rating (Phytophthora infestans; [5])	Test J disease control rating (Septoria tritici; [5])	Test B disease control rating [2, 5]	also measured
CC(C)Cn1c(-c2ccccc2Cl)c(Cl)nc(-n2cncn2)c1=O [compound 192]	89* %	0* %	0* %	99* %	0* %	0* %	0* %	98* %	0* %	0* %	31* %	–	–	–	–	–	–	–	–	–	–
CC(C)Cn1c(-c2ccccc2Cl)c(Cl)nc(-n2cccn2)c1=O [compound 193]	100* %	89* %	17* %	100* %	0* %	0* %	0* %	99* %	29* %	68* %	33* %	–	–	–	–	–	–	–	–	–	–
CC(C)Cn1c(-c2ccccc2Br)c(Cl)nc(-n2cncn2)c1=O [compound 194]	92* %	0* %	0* %	95* %	0* %	0* %	0* %	88* %	0* %	0* %	0* %	–	–	–	–	–	–	–	–	–	–
CC(C)Cn1c(-c2ccccc2Br)c(Cl)nc(-n2cccn2)c1=O [compound 195]	100* %	87* %	0* %	99* %	0* %	0* %	0* %	100* %	26* %	0* %	47* %	–	–	–	–	–	–	–	–	–	–
CCc1ccccc1-c1c(Cl)nc(-n2cncn2)c(=O)n1CC(C)C [compound 196]	0* %	0* %	0* %	0* %	44* %	0* %	0* %	0* %	0* %	0* %	0* %	–	–	–	–	–	–	–	–	–	–
CCc1ccccc1-c1c(Cl)nc(-n2cccn2)c(=O)n1CC(C)C [compound 197]	0* %	0* %	0* %	41* %	0* %	0* %	0* %	23* %	0* %	0* %	16* %	–	–	–	–	–	–	–	–	–	–
CC[C@H](C)Cn1c(-c2ccc(F)cc2Cl)c(Cl)nc(-n2ccc(C)n2)c1=O [compound 262]	–	–	–	–	–	–	–	–	–	–	–	–	–	–	–	–	–	–	–	–	Test K disease control rating [1, 4]: 100* %; Test H disease control rating (Septoria nodorum; [4]): 100* %; Test D disease control rating (Plasmopara viticola; [4]): 17* %; Test E disease control rating (Botrytis cinerea; [4]): 100* %; Test I disease control rating (fusarium graminearium; [4]): 0* %; Test A disease control rating (Pythium aphanidermatum; [4]): 0* %; Test F disease control rating (Phytophthora infestans; [4]): 39* %; Test J disease control rating (Septoria tritici; [4]): 100* %; Test B disease control rating [2, 4]: 100* %; Test L disease control rating [3, 4]: 99* %; Test G disease control rating (Rhizoctonia oryzae; [4]): 76* %
CC[C@H](C)Cn1c(-c2ccc(F)cc2Cl)c(Cl)nc(-n2cccn2)c1=O [compound 263]	–	–	–	–	–	–	–	–	–	–	–	–	–	–	–	–	–	–	–	–	Test K disease control rating [1, 4]: 100* %; Test H disease control rating (Septoria nodorum; [4]): 100* %; Test D disease control rating (Plasmopara viticola; [4]): 0* %; Test E disease control rating (Botrytis cinerea; [4]): 100* %; Test I disease control rating (fusarium graminearium; [4]): 0* %; Test A disease control rating (Pythium aphanidermatum; [4]): 0* %; Test F disease control rating (Phytophthora infestans; [4]): 68* %; Test J disease control rating (Septoria tritici; [4]): 100* %; Test B disease control rating [2, 4]: 100* %; Test L disease control rating [3, 4]: 98* %; Test G disease control rating (Rhizoctonia oryzae; [4]): 84* %
CC[C@H](C)Cn1c(-c2ccc(F)cc2Cl)c(Cl)nc(N2CCC=N2)c1=O [compound 264]	–	–	–	–	–	–	–	–	–	–	–	–	–	–	–	–	–	–	–	–	Test K disease control rating [1, 4]: 91* %; Test H disease control rating (Septoria nodorum; [4]): 0* %; Test D disease control rating (Plasmopara viticola; [4]): 0* %; Test E disease control rating (Botrytis cinerea; [4]): 99* %; Test I disease control rating (fusarium graminearium; [4]): 0* %; Test A disease control rating (Pythium aphanidermatum; [4]): 0* %; Test F disease control rating (Phytophthora infestans; [4]): 80* %; Test J disease control rating (Septoria tritici; [4]): 100* %; Test B disease control rating [2, 4]: 81* %; Test L disease control rating [3, 4]: 83* %; Test G disease control rating (Rhizoctonia oryzae; [4]): 0* %
CCCCn1c(-c2ccc(F)cc2Cl)c(Br)nc(N2CCC=N2)c1=O [compound 286]	–	–	–	–	–	–	–	–	–	–	–	–	–	–	–	–	–	–	–	–	Test K disease control rating [1, 4]: 0* %; Test H disease control rating (Septoria nodorum; [4]): 0* %; Test D disease control rating (Plasmopara viticola; [4]): 0* %; Test E disease control rating (Botrytis cinerea; [4]): 97* %; Test I disease control rating (fusarium graminearium; [4]): 0* %; Test A disease control rating (Pythium aphanidermatum; [4]): 0* %; Test F disease control rating (Phytophthora infestans; [4]): 41* %; Test J disease control rating (Septoria tritici; [4]): 37* %; Test B disease control rating [2, 4]: 0* %; Test L disease control rating [3, 4]: 0* %; Test G disease control rating (Rhizoctonia oryzae; [4]): 0* %
O=c1c(-n2cccn2)nc(Cl)c(-c2c(F)cc(F)cc2F)n1-c1ccccc1 [compound 287]	–	–	–	–	–	–	–	–	–	–	–	–	–	–	–	–	–	–	–	–	Test K disease control rating [1, 4]: 99* %; Test H disease control rating (Septoria nodorum; [4]): 99* %; Test D disease control rating (Plasmopara viticola; [4]): 47* %; Test E disease control rating (Botrytis cinerea; [4]): 100* %; Test I disease control rating (fusarium graminearium; [4]): 97* %; Test A disease control rating (Pythium aphanidermatum; [4]): 56* %; Test F disease control rating (Phytophthora infestans; [4]): 46* %; Test J disease control rating (Septoria tritici; [4]): 100* %; Test B disease control rating [2, 4]: 99* %; Test L disease control rating [3, 4]: 99* %; Test G disease control rating (Rhizoctonia oryzae; [4]): 93* %
CCC(C)Cn1c(-c2c(F)cccc2F)c(Cl)nc(C(=O)NC)c1=O (stereo not shown) [compound 297]	–	–	–	–	–	–	–	–	–	–	–	98%	100%	88%	99%	75%	0%	92%	99%	73%	Test L disease control rating [3, 5]: 97%; Test G disease control rating (Rhizoctonia oryzae; [5]): 78%
CCCNC(=O)c1nc(Cl)c(-c2c(F)cccc2F)n(CC(C)CC)c1=O (stereo not shown) [compound 299]	–	–	–	–	–	–	–	–	–	–	–	100%	99%	40%	99%	100%	69%	90%	100%	40%	Test L disease control rating [3, 5]: 95%; Test G disease control rating (Rhizoctonia oryzae; [5]): 31%
CC(C)c1c(Cl)nc(-n2cccn2)c(=O)n1Cc1ccccc1 [compound 304]	–	–	–	–	–	–	–	–	–	–	–	100%	0%	0%	99%	0%	0%	49%	100%	0%	Test L disease control rating [3, 5]: 46%; Test G disease control rating (Rhizoctonia oryzae; [5]): 31%
Cc1ccn(-c2nc(Cl)c(C(C)C)n(Cc3ccccc3)c2=O)n1 [compound 305]	–	–	–	–	–	–	–	–	–	–	–	97%	0%	0%	99%	0%	0%	50%	93%	0%	Test L disease control rating [3, 5]: 52%; Test G disease control rating (Rhizoctonia oryzae; [5]): 16%
CC(C)c1c(Cl)nc(-n2cccn2)c(=O)n1-c1ccccc1 [compound 306]	–	–	–	–	–	–	–	–	–	–	–	51%	0%	0%	0%	0%	0%	30%	44%	0%	Test L disease control rating [3, 5]: 0%; Test G disease control rating (Rhizoctonia oryzae; [5]): 0%
Cc1ccn(-c2nc(Cl)c(C(C)C)n(-c3ccccc3)c2=O)n1 [compound 307]	–	–	–	–	–	–	–	–	–	–	–	51%	0%	0%	88%	49%	0%	84%	20%	0%	Test L disease control rating [3, 5]: 0%; Test G disease control rating (Rhizoctonia oryzae; [5]): 0%
